For assay [1], the target named is human emopamil binding protein and human 7-dehydrocholesterol reductase (hEBP-DHCR7) (Homo sapiens (Human), UniProt Q15125). The assay can be described thus: hEBP-DHCR7 radioligand binding assay (filter binding, membranes of co-expressing HEK293 cells). Conditions: competition with [3H] radioligand, 8 doses 0.06 to 5000 nM, Ki calculated from IC50. As to the method:
Membrane Preparation: human emopamil binding protein and human 7-dehydrocholesterol reductase co-expressing cells were generated by transient transfecting host human embryonic kidney (HEK) 293 cells with 2 DNA constructs containing each protein's coding sequence. Cells were suspension cultured at 37° C. with 5% CO2 in […] 293 Expression Medium (Thermofisher). Whole cell membrane was prepared by harvesting the cell pellet, adding cold membrane buffer (50 mM Tris, pH7.5, 1× Roche COMPLETE EDTA-free protease inhibitor cocktail) 10 times volume of the cell pellets weight, lysing cell pellet on ice by using Dounce homogenizer, spinning at 200 g 4° C. for 15 min, collecting supernatant and spinning again at 25000 g 4° C. for 50 min, transferring pellet to Dounce homogenizer, re-suspending pellet by homogenizing in membrane buffer on ice to reach ˜25 mg/mL, then keeping whole cell membrane aliquots at −80° C.
Compounds were prepared in a 96-well U bottom plate (Corning Cat #7007) using an Echo550 machine and 10 mM compound DMSO stock solution, followed by an 8-dose 5-fold serial dilutions protocol with final testing compound concentration ranging from 0.06 to 5000 nM, with DMSO back fill to 100 nL/well and n=2. […] The UniFilter-96 GF/B plates (PerkinElmer Cat #6005177) were pre-treated by adding 50 μl/well of 0.3% (v/v) Polyethylenimine (PEI) (branched, Sigma Cat #408727) to UniFilter-96 GF/B plates. The plates were sealed and incubated at 4° C. for 3 hrs. Then, the plates were washed with ice-cold assay buffer 3 times. The radioligand binding assay was prepared by adding assay buffer diluted hEBP-DHCR7 membrane at 66.7 µg/ml×150 μl/well into the 96-well compound plate to reach 10 μg membrane per well. Then, the assay buffer diluted [3H]—(S)-6-(2-Methyl-3-(6-(trifluoromethyl)pyridin-3-yl)propyl)-2-thia-6-azaspiro[3.4]octane 2,2-dioxide (Moravek, Cat #MT-1003106) was added at 25 nM×50 μl/well. Following this, the plate was centrifuged at 1000 rpm for 30 secs. The plate was then sealed and agitated at 600 rpm at 22° C. for 5 min, and then incubated at 22° C. for 3 hrs. The incubation was stopped by transferring the binding solution to the pre-treated UniFilter-96 GF/B plate, vacuum filtrated, and then washed four times with ice-cold assay buffer. Following this, the plates were dried at 37° C. for 45 min. The plates were then sealed at the bottom. 40 µl/well of scintillation cocktail was added to the plates. A MicroBeta2 microplate counter was then used to read the plate and analyze the data. For reference and test compounds, the results are expressed as % Inhibition, using the normalization equation: N=100−100×(U−C2)/(C1−C2), where U is the unknown value, C1 is the average of high controls, and C2 is the average value of low controls.

Assay [2] concerns zymostenol accumulation (EBP) in EpiSC-derived OPCs. The assay can be described thus: GC/MS-based sterol profiling, zymostenol accumulation in EpiSC-derived OPCs. As to conditions: Mus musculus, 24 h, EpiSC-derived OPCs, 24 hr, 8 doses from 0.15 nM to 333 nM; read-out: Mouse Zymostenol GCMS EC50. It is filed as cell-based, mouse. As for the experimental part: To assess effects of treatments on OPCs, all treatments were assayed in two or more independent platings of epiblast stem cell-derived OPCs (EpiSC). EpiSC-derived OPCs were obtained using in vitro differentiation protocols and culture conditions described previously (Najm et al, 2011, Nature Methods). OPCs were expanded and frozen down in aliquots. OPCs were thawed into growth conditions for at least one passage before use in further assays.
Sterols were monitored using a modified Folch wash protocol (Hubler et al, 2018, Nature). EpiSC-derived OPCs were plated at 100,000 cells per well in PO- and laminin-coated 96-well plates in N2B27 media without growth factors. After 24 hours, cells were rinsed with saline and plates were frozen. Cholesterol-d7 standard was then added to each well before drying under nitrogen stream and derivatization with 55 μl of bis(trimethylsilyl) trifluoroacetamide. After derivatization, 2 μl were analyzed by gas chromatography/mass spectrometry using an Agilent 5973 Network Mass Selective Detector equipped with a 6890 gas chromatograph system and a HP-5MS capillary column (30 m×0.25 mm×[…]). Samples were analyzed in full scan mode using electron impact ionization; ion fragment peaks were integrated to calculate sterol abundance, and quantitation was relative to cholesterol-d7. The following ion fragments were used to quantitate each metabolite: cholesterol-d7 (465), FF-Mas (482), cholesterol (368), zymostenol (458), zymosterol (456), Desmosterol (456, 343), 7-dehydrocholesterol (456, 325), lanosterol (393), lathosterol (458), 14-dehydrozymostenol (456, 351). […] All standards were obtained from Avanti Polar Lipids unless otherwise indicated. Calibration curves were generated by injecting varying concentrations of sterol standards and maintaining a fixed amount of cholesterol-D7. For normalized zymostenol accumulation results, the total amount of zymostenol measured after drug treatment was divided by the total amount of zymostenol accumulated after 24 hr treatment with 100 nM positive control reference.

Drawing on patent US20260008775A1, “AZOLE MODULATORS OF CHOLESTEROL BIOSYNTHESIS AND THEIR USE FOR PROMOTING REMYELINATION” (GENENTECH, INC., priority 2022, published 2026), this text covers Ki and EC50 for 17 compounds.

By Ki is commonly meant the equilibrium dissociation constant of an inhibitor or competing ligand from its target. Broadly, the EC50 is the concentration giving half of the maximal effect.

Sequence of human emopamil binding protein and human 7-dehydrocholesterol reductase (hEBP-DHCR7) (Q15125 whole entry): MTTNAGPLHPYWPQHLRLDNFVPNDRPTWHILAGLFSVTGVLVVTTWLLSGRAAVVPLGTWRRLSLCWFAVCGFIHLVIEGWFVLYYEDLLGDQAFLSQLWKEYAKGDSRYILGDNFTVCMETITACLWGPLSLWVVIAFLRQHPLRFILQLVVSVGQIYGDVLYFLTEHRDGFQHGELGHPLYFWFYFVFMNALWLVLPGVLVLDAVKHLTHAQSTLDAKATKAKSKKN

On to `CC(C)n1nc(-c2cccc(OC(F)F)c2)nc1[C@H]1[C@@H]2C[C@@H](N3CCOC[C@H]3C)C[C@@H]21` [Compound 77, (R)-4-((1R,3s,5S,6R)-6-(3-(3-(Difluoromethoxy)phenyl)-1-isopropyl-1H-1,2,4-triazol-5-yl)bicyclo[3.1.0]hexan-3-yl)-3-methylmorpholine], for which the Ki in assay [1] is 129 nM. In addition, the EC50 in assay [2] worked out at 191 nM.

As to `COCCN1CCN([C@@H]2CC[C@@H](c3nc(-c4ccc(C(F)(F)F)nc4)nn3C(C)C)C2)CC1` [Compound 82, 1-((1R,3R)-3-(1-Isopropyl-3-(6-(trifluoromethyl)pyridin-3-yl)-1H-1,2,4-triazol-5-yl)cyclopentyl)-4-(2-methoxyethyl)piperazine], the Ki in assay [1] is 87 nM. Further, the 50% effective concentration (EC50) in assay [2] is 280 nM.

For the compound `CC(C)n1nc(-c2cccc(C(F)(F)F)n2)cc1[C@H]1[C@@H]2C[C@@H](N3CCN(C4CCC4)CC3)C[C@@H]21` [Compound 84, 1-Cyclobutyl-4-((1R,3s,5S,6r)-6-(1-isopropyl-3-(6-(trifluoromethyl)pyridin-2-yl)-1H-pyrazol-5-yl)bicyclo[3.1.0]hexan-3-yl)piperazine], the Ki in assay [1] was 27.8 nM. In assay [2], the EC50 was determined as 3.49 nM.

As to `CC(C)n1nc(-c2cccc(C(F)(F)F)n2)cc1[C@H]1[C@@H]2C[C@H](N3CCN(C4CCC4)CC3)C[C@@H]21` [Compound 85, 1-Cyclobutyl-4-((1R,3r,5S,6r)-6-(1-isopropyl-3-(6-(trifluoromethyl)pyridin-2-yl)-1H-pyrazol-5-yl)bicyclo[3.1.0]hexan-3-yl)piperazine], the inhibition constant (Ki) in assay [1] is 472 nM. For the same compound, the EC50 in assay [2] worked out at 279 nM.

`CC(C)n1nc(-c2cnc(C(F)(F)F)nc2)nc1[C@H]1CC[C@H](N2CCOCC2)C1` [Compound 94, 4-((1S,3S)-3-(1-Isopropyl-3-(2-(trifluoromethyl)pyrimidin-5-yl)-1H-1,2,4-triazol-5-yl)cyclopentyl)morpholine]: the Ki in assay [1] was 243 nM. In assay [2], the EC50 is 187 nM.

As to `CC(C)n1nc(-c2cnc(C(F)(F)F)nc2)cc1[C@H]1[C@@H]2C[C@@H](N3CCOC[C@H]3C)C[C@@H]21` [Compound 96, (R)-4-((1R,3s,5S,6R)-6-(1-Isopropyl-3-(2-(trifluoromethyl)pyrimidin-5-yl)-1H-pyrazol-5-yl)bicyclo[3.1.0]hexan-3-yl)-3-methylmorpholine], the Ki in assay [1] was 631 nM. For the same compound, the EC50 in assay [2] turned out to be 928 nM.

For the compound `CC(C)n1nc(-c2ccnc(C(F)(F)F)n2)cc1[C@H]1[C@@H]2C[C@H](N3CCOCC3)C[C@@H]21` [Compound 99, 4-((1R,3r,5S,6r)-6-(1-Isopropyl-3-(2-(trifluoromethyl)pyrimidin-4-yl)-1H-pyrazol-5-yl)bicyclo[3.1.0]hexan-3-yl)morpholine], the Ki in assay [1] was 87.8 nM. For the same compound, the EC50 in assay [2] was 62 nM.

On to `CC(C)n1nc(-c2ccnc(C(F)(F)F)n2)cc1[C@H]1[C@@H]2C[C@@H](N3CCOC[C@@H]3C)C[C@@H]21` [Compound 100, (S)-4-((1R,3s,5S,6S)-6-(1-Isopropyl-3-(2-(trifluoromethyl)pyrimidin-4-yl)-1H-pyrazol-5-yl)bicyclo[3.1.0]hexan-3-yl)-3-methylmorpholine], for which the Ki in assay [1] was 11 nM. Also, the EC50 in assay [2] came to 5.99 nM.

Regarding `CC(C)n1nc(-c2ccnc(C(F)(F)F)n2)cc1[C@H]1[C@@H]2C[C@@H](N3CCOC[C@H]3C)C[C@@H]21` [Compound 102, (R)-4-((1R,3s,5S,6S)-6-(1-Isopropyl-3-(2-(trifluoromethyl)pyrimidin-4-yl)-1H-pyrazol-5-yl)bicyclo[3.1.0]hexan-3-yl)-3-methylmorpholine], the Ki in assay [1] was 73 nM. Further, the EC50 in assay [2] was 55 nM.

Consider `CC(C)n1nc(-c2cncc(C(F)(F)F)n2)cc1[C@H]1[C@@H]2C[C@H](N3CCOCC3)C[C@@H]21` [Compound 108, 4-((1R,3r,5S,6r)-6-(1-Isopropyl-3-(6-(trifluoromethyl)pyrazin-2-yl)-1H-pyrazol-5-yl)bicyclo[3.1.0]hexan-3-yl)morpholine], for which, in assay [1], the Ki was 87.8 nM. Moreover, in assay [2], the EC50 was 62 nM.

For `CC(C)n1nc(-c2cncc(C(F)(F)F)c2)nc1[C@H]1[C@@H]2C[C@@H](N3CCOC[C@H]3C)C[C@@H]21` [Compound 119, (R)-4-((1R,3s,5S,6R)-6-(1-Isopropyl-3-(5-(trifluoromethyl)pyridin-3-yl)-1H-1,2,4-triazol-5-yl)bicyclo[3.1.0]hexan-3-yl)-3-methylmorpholine], the Ki in assay [1] was 584 nM. In assay [2], the EC50 worked out at 213 nM.

For the compound `CC(C)n1nc(-c2cncc(C(F)(F)F)c2)nc1[C@H]1[C@@H]2C[C@@H](N3CCOC[C@@H]3C)C[C@@H]21` [Compound 121, (S)-4-((1R,3s,5S,6R)-6-(1-Isopropyl-3-(5-(trifluoromethyl)pyridin-3-yl)-1H-1,2,4-triazol-5-yl)bicyclo[3.1.0]hexan-3-yl)-3-methylmorpholine], the Ki in assay [1] was 564 nM. The EC50 in assay [2] worked out at 193 nM.

Regarding `CC(C)n1nc(-c2cncc(C(F)(F)F)c2)nc1[C@H]1[C@@H]2C[C@H](N3CCOC[C@@H]3C)C[C@@H]21` [Compound 122, (S)-4-((1R,3r,5S,6R)-6-(1-Isopropyl-3-(5-(trifluoromethyl)pyridin-3-yl)-1H-1,2,4-triazol-5-yl)bicyclo[3.1.0]hexan-3-yl)-3-methylmorpholine], the Ki in assay [1] was 26.6 nM. For the same compound, the 50% effective concentration (EC50) in assay [2] worked out at 7.81 nM.

Regarding `CC[C@H]1CN([C@@H]2CC[C@H](c3nc(-c4cncc(F)c4)nn3C(C)C)C2)CCO1` [Compound 123, (S)-2-Ethyl-4-((1R,3S)-3-(3-(5-fluoropyridin-3-yl)-1-isopropyl-1H-1,2,4-triazol-5-yl)cyclopentyl)morpholine], the Ki in assay [1] was 40.4 nM. In addition, in assay [2], the EC50 is 10.6 nM.

As for `CC[C@@H]1CN([C@@H]2CC[C@H](c3nc(-c4cncc(F)c4)nn3C(C)C)C2)CCO1` [Compound 124, (R)-2-Ethyl-4-((1R,3S)-3-(3-(5-fluoropyridin-3-yl)-1-isopropyl-1H-1,2,4-triazol-5-yl)cyclopentyl)morpholine], in assay [1], the Ki was 2400 nM. Further, the EC50 in assay [2] worked out at 376 nM.

As for `CC(C)n1nc(-c2cncc(Cl)c2)nc1[C@H]1CC[C@H](N2CCOC[C@@H]2C)C1` [Compound 125, (S)-4-((1S,3S)-3-(3-(5-Chloropyridin-3-yl)-1-isopropyl-1H-1,2,4-triazol-5-yl)cyclopentyl)-3-methylmorpholine], the Ki in assay [1] is 245 nM. For the same compound, in assay [2], the EC50 is 716 nM.

On to `CC(C)n1nc(-c2cncc(Cl)c2)nc1[C@H]1CC[C@@H](N2CCOC[C@@H]2C)C1` [Compound 126, (S)-4-((1R,3S)-3-(3-(5-Chloropyridin-3-yl)-1-isopropyl-1H-1,2,4-triazol-5-yl)cyclopentyl)-3-methylmorpholine], for which the Ki in assay [1] was 30.8 nM. Also, in assay [2], the EC50 was 6.79 nM.
